Reference: patent US8540999B2, “Allergenic proteins and peptides from Japanese cedar pollen” (Merck Patent GmbH, priority 1991, dated 2013)
Each block holds one molecule with its values, some of them ahead of it. Ends that are not written are not given here.

Tests used:
[1] = Solubility, pH range protocol procedure; assay type: physicochemical; conditions: pH range pH6 to pH8
Excerpt: (§1) Of the above group of modified peptides, several peptides have been identified as “unique” modified peptides. […] Certain modified peptides are characterized as “unique” due to the difficulties encountered when developing a modified peptide which meets all of the stringent requirements of a “unique” peptide defined herein. In many cases, multiple modifications of a parent peptide are attempted prior to identifying a modified derivitive peptide which meets all the characteristics of a “unique” modified peptide. Unique modified peptides are particularly useful as candidate peptides for formulating injectable multipeptide therapeutic formulations of the invention because “unique” modified peptides are soluble and stable in the same physiologically acceptable pH range as well as elicit the necessary T cell reactivity of a therapeutic peptide of the invention. “Unique” modified peptides of the invention include but are not limited to the following group of modified peptides: CJ1-24.5, CJ1-43.39, CJ1-43.50, CJ1-44.8, and CJ1-44.9 all as shown in FIGS. 20 and 44. Example 21 describes the development and identification of “unique” modified peptides of the invention.
(§2) Additional truncation of two C-terminal residues yielded 44.2 (SEQ ID NO: ). […] Thus, 44.2 (SEQ ID NO: ) was further modified by the addition of charged (hydrophilic residues) to the N-terminus and by replacement of the hydrophobic residue Val with the less hydrophobic residue Ala. […] CJI-44.8 (SEQ ID NO: 132) was stable and soluble at greater than 5 mg/ml over the pH range pH6-pH8 in an aqueous buffer.

[2] = Stability in aqueous buffer; assay type: physicochemical; conditions: pH6 to pH8
Excerpt: as §1, §2

[3] = tested on: Cry j I reactive T cells; assay: T cell proliferation assay, Cry j I primed T cell lines (Example 6); assay type: cell-based, human; conditions: for T cell reactivity: Example 21 narrative, parent peptides of CJI-44.8; for T cell line response: panel of twenty-five patients, FIG. 14
Procedure: Viable cells were purified by LSM centrifugation and cultured in complete medium supplemented with 5 units recombinant human IL-2/ml and 5 units recombinant human IL-4/ml for up to three weeks until the cells no longer responded to lymphokines and were considered “rested”. The ability of the T cells to proliferate to selected peptides, recombinant Cry j I (rCry j I), purified native Cry j I, or recombinant Amb aI.1 (rAmb aI.1) or a positive control, phyto-hemaglutinin (PHA) was then assessed. For assay, 2×10^4 rested cells were restimulated in the presence of 2×10^4 autologous Epstein-Barr virus (EBV)-transformed B cells (prepared as described below) (gamma-irradiated with 25,000 RADS) with 2-50 μg/ml of selected peptides, Cry j I, purified native Cry j I or rAmb a I.1 or PHA, in a volume of 200 μl complete medium in duplicate or triplicate wells in 96-well round bottom plates for 2-4 days. […] Each well then received 1 μCi tritiated thymidine for 16-20 hours. The counts incorporated were collected onto glass fiber filter mats and processed for liquid scintillation counting. […] The titrations were used to optimize the dose of peptides in T cell assays. The maximum response in a titration of each peptide is expressed as the stimulation index (S.I.). The S.I. is the counts per minute (CPM) incorporated by cells in response to peptide, divided by the CPM incorporated by cells in medium only.
The above procedure was followed with a number of other patients. […] The bars represent the positivity index. Above each bar is the percent of positive responses with an S.I. of at least two to the peptide or protein in the group of patients tested. In parenthesis above each bar are the mean stimulation indices for each peptide or protein for the group of patients tested.
Autologous EBV-transformed cell lines were y-irradiated with 25,000 Rad and used as antigen presenting cells in secondary proliferation assays and secondary bulk stimulations. These EBV-transformed cell lines were made by incubating 5×10^6 PBL with 1 ml of B-59/8 Marmoset cell line (ATCC CRL1612, American Type Culture Collection, Rockville, Md.) conditioned medium in the presence of 1 μg/ml phorbol 12-myristate 13-acetate (PMA) at 37° C. for 60 minutes in 12×75 mm polypropylene round-bottom Falcon snap cap tubes (Becton Dickinson Labware, Lincoln Park, N.J.). These cells were then diluted to 1.25×10^6 cells/ml in RPMI-1640 as described above except supplemented with 10% heat-inactivated fetal bovine serum and cultured in 200 μl aliquots in flat bottom culture plates until visible colonies were detected. They were then transferred to larger wells until the cell lines were established.

[4] = tested on: Cry j II reactive T cells; assay: T cell proliferation assay, Cry j II primed T cell lines (Example 19); assay type: cell-based, human
Procedure: Long term T cell lines were established by stimulation of 2×10^6 PBL/ml in bulk cultures of complete medium (RPMI-1640, 2 mM L-glutamine, 100 U/ml penicillin/streptomycin, 5×10^−5M 2-mercaptoethanol, and 10 mM HEPES supplemented with 5% heat inactivated human AB serum) with 10 μg/ml of partially purified native Cry j II for 7 days at 37° C. in a humidified 5% CO2 incubator to select for Cry j II reactive T cells. This amount of priming antigen was determined to be optimal for the activation of T cells from most Japanese cedar pollen Cry j II allergic patients. Viable cells were purified by LSM centrifugation and cultured in complete medium supplemented with 5 units recombinant human IL-2/ml and 5 units recombinant human IL-4/ml for up to three weeks until the cells no longer responded to lymphokines and were considered “rested”. The ability of the T cells to proliferate to peptides Cry j IIA (SEQ ID NO: 185) and Cry j IIB (SEQ ID NO: 186), recombinant Cry j II (rCry j II) (SEQ ID NO: 134), purified native Cry j II, was then assessed. For assay, 2×10^4 rested cells were restimulated in the presence of 2×10^4 autologous Epstein-Barr virus (EBV)-transformed B cells (prepared as described in Example 6) (gamma-irradiated with 25,000 RADS) with 2-50 ’g/ml of rCry j II (SEQ ID NO: 134), purified native Cry j II, peptides Cry j IIA (SEQ ID NO: 185) and Cry j IIB (SEQ ID NO: 186), positive control (PHA), negative control (Amb a I.1), in a volume of […] complete medium in duplicate or triplicate wells in 96-well round bottom plates for 2-4 days. […] Each well then received 1 μCi tritiated thymidine for 16-20 hours. The counts incorporated were collected onto glass fiber filter mats and processed for liquid scintillation counting. The maximum response in a titration of each peptide is expressed as the stimulation index (S.I.). The S.I. is the counts per minute (CPM) incorporated by cells in response to peptide, divided by the CPM incorporated by cells in medium only. A positivity index may be calculated by multiplying the mean S.I. (indicated above each bar in FIGS. 42 and 43) by the percentage of individuals responding to the peptide (indicated in parentheses above each bar in FIGS. 42 and 43). […]

[5] = tested on: patients' plasma IgE; assay: Direct binding assay of IgE to Cry j I, Cry j II and recombinant Cry j II (Example 18); set-up: species or system human
Procedure: Costar assay plates were coated with Cry j I or Cry j II at 2 μg/mL or recombinant Cry j II preparation at 10 μg/mL (approximately 20% pure) in a volume of 50 μL overnight at 4° C. The coating antigens were removed and the wells were blocked with 0.5% gelatin, PVP (polyvinyl pyrolidine) 1 mg/mL in PBS, 200 μL/well for 2 hours at room temperature. The anti-Cry j I monoclonal antibody, 4B11, was serially diluted in PBS-Tween 20 starting at a 1:1000 dilution. The human plasma were serially diluted in PBS-Tween at a starting dilution of 1:2. For this set 23 plasma samples from patients symptomatic for Japanese cedar pollen allergy chosen for IgE binding analysis. The first antibody incubation proceeded overnight at 4° C. Following three washes with PBS-Tween the second antibodies were added (biotinylated goat anti-mouse Ig or goat anti-human IgE both at 1:2000) and incubated for two hours at room temperature at 100 μL/well. After washing 3 times, […]. This solution was removed and streptavidin-HRPO diluted to 1:10,000, was added at 100 μL/well. The color was allowed to develop for 2-5 minutes. The reaction was stopped by the addition of 100 μL/well of 1M phosphoric acid. Plates were read on a Microplate IL310 Autoreader (Biotek Instruments, Winooski, Vt.) with a 450 nm filter. The absorbance levels of duplicate wells were averaged. A positive binding result, indicated by a plus sign is determined to be a reading of two-fold or greater above background (no first antibody) at the second dilution of plasma ([…]).

[6] = aqueous sodium phosphate buffer

- solubility [1, 6]: > 5000 µg/mL
- stability [2]: stable
Molecule: DKEPRARYGLVHVANNNYDPWTIEEE [CJ1-24.5]

Molecule: CJ1-31: Cry j I peptide, SEQ ID NO: 56 (DVFYNGAYFVSSGKYEGGNI; listed as Cryptomeria japonica)
- T cell reactivity [3]: high T-cell reactivity
- T cell line response [3]: responded

- solubility ([1]; aqueous buffer): > 5000 µg/mL
- stability [2]: stable
Molecule: KSMKVTVAFNQARK [CJ1-43.50]

Molecule: Cry j IIH: SEQ ID NO: 192, amino acids 386-409 of Cry j II (DSMPCKDIKLSDISLKLTSGKIAS; listed as Cryptomeria japonica)
- T cell proliferative response ([4]; 9 patients, FIG. 43): react

- solubility ([1]; aqueous buffer): > 5000 µg/mL
- stability [2]: stable
Molecule: DEEGAYFVSSGKYEGGNIYTKKEAFNVEDE [CJ1-44.9]

Molecule: Cry j IIG: SEQ ID NO: 191, amino acids 152-175 of Cry j II (GKGVIDGQGKQWWAGQCKWVNGRE; listed as Cryptomeria japonica)
- T cell proliferative response ([4]; 9 patients, FIG. 43): react

- solubility [1, 6]: > 5000 µg/mL
- stability [2]: stable
Molecule: DDAYSDDKSMKVTVAFNQFGDE [CJ1-43.39]

Molecule: CJ1-32: Cry j I peptide, SEQ ID NO: 57 (SSGKYEGGNIYTKKEAFNVE; listed as Cryptomeria japonica)
- T cell reactivity [3]: high T-cell reactivity
- T cell line response [3]: responded

B1: Cry j IIF: recombinant peptide, amino acids 397-514 of Cry j II, SEQ ID NO: 190 (protein, listed as Cryptomeria japonica)
chain: MGHHHHHHEFISLKLTSGKIASCLNDNANGYFSGHVIPACKNLSPSAKRKESKSHKHPKTVMVENMRAYDKGNRTRILLGSRPPNCTNKCHGCSPCKAKLVIVHRIMPQEYYPQRWICSCHGKIYHP
- T cell proliferative response ([4]; 9 patients, FIG. 43): react

- plasma IgE binding response ([5]; patient #1034): negative
- plasma IgE binding response ([5]; patient plasma samples, FIGS. 31-33): further reduction in binding
- plasma IgE binding response ([5]; patients #1143 and #1146): clearly positive
B2: rCry j II: recombinant Cry j II expressed in E. coli with His6 leader (protein, listed as Cryptomeria japonica)
chain: MAMKLIAPMAFLAMQLIIMAAAEDQSAQIMLDSVVEKYLRSNRSLRKVEHSRHDAINIFNVEKYGAVGDGKHDCTEAFSTAWQAACKNPSAMLLVPGSKKFVVNNLFFNGPCQPHFTFKVDGIIAAYQNPASWKNNRIWLQFAKLTGFTLMGKGVIDGQGKQWWAGQCKWVNGREICNDRDRPTAIKFDFSTGLIIQGLKLMNSPEFHLVFGNCEGVKIIGISITAPRDSPNTDGIDIFASKNFHLQKNTIGTGDDCVAIGTGSSNIVIEDLICGPGHGISIGSLGRENSRAEVSYVHVNGAKFIDTQNGLRIKTWQGGSGMASHIIYENVEMINSENPILINQFYCTSASACQNQRSAVQIQDVTYKNIRGTSATAAAIQLKCSDSMPCKDIKLSDISLKLTSGKIASCLNDNANGYFSGHVIPACKNLSPSAKRKESKSHKHPKTVMVENMRAYDKGNRTRILLGSRPPNCTNKCHGCSPCKAKLVIVHRIMPQEYYPQRWICSCHGKIYHP
- T cell proliferative response ([4]; 9 patients, FIG. 43): react
- T cell proliferative response ([4]; n=6 patients, FIG. 42): respond well

B3: Cry j IIC: recombinant peptide, amino acids 46-163 of Cry j II, SEQ ID NO: 187 (protein, listed as Cryptomeria japonica)
chain: MGHHHHHHEFRKVEHSRHDAINIFNVEKYGAVGDGKHDCTEAFSTAWQAACKNPSAMLLVPGSKKFVVNNLFFNGPCQPHFTFKVDGIIAAYQNPASWKNNRIWLQFAKLTGFTLMGKGVIDGQGKQW
- T cell proliferative response ([4]; 9 patients, FIG. 43): react

B4: Cry j IID: recombinant peptide, amino acids 164-280 of Cry j II, SEQ ID NO: 188 (protein, listed as Cryptomeria japonica)
chain: MGHHHHHHEFWAGQCKWVNGREICNDRDRPTAIKFDFSTGLIIQGLKLMNSPEFHLVFGNCEGVKIIGISITAPRDSPNTDGIDIFASKNFHLQKNTIGTGDDCVAIGTGSSNIVIEDLICGPGHGI
- T cell proliferative response ([4]; 9 patients, FIG. 43): react

B5: Cry j IIE: recombinant peptide, amino acids 281-396 of Cry j II, SEQ ID NO: 189 (protein, listed as Cryptomeria japonica)
chain: MGHHHHHHEFSIGSLGRENSRAEVSYVHVNGAKFIDTQNGLRIKTWQGGSGMASHIIYENVEMINSENPILINQFYCTSASACQNQRSAVQIQDVTYKNIRGTSATAAAIQLKCSDSMPCKDIKLSD
- T cell proliferative response ([4]; 9 patients, FIG. 43): react
